Measurements from patent US11390631B1, “Benzodiazepine derivatives as RSV inhibitors” (priority 2015, dated 2022).

What was measured:
[1] = tested on: Human RSV-A (“Long” strain); experiment: RSV-A assay: inhibition of cytopathic effect in Hep-2 cells, ATPlite readout; format: cell-based, Human respiratory syncytial virus (HRSV); details: human respiratory syncytial virus, HEp-2, 120 h, read-out: Human RSV-A (“Long” strain) EC50
Summary of the method: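 Cytopathic-effect protection was read as ATP content (ATPlite luminescence) after a 5-day incubation. Setup: Hep-2 cells at 8,000 per well, RSV-A Long at MOI 0.1, 2-fold serial compound dilutions in duplicate. Cytotoxicity (CC50) was measured on an identical uninfected plate run in parallel.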

[2] = Cytotoxicity on parallel plate without virus, ATPlite readout; format: cell-based; details: human, Hep-2 cells (no virus), Hep-2 cells without virus, 5-day incubation
Method: Following extensive parameter testing, the final assay is run as follows: Hep-2 cells are seeded into the inner 60 wells of a 96-well plate at 8,000 cells per well in a volume of 50 μL using Growth Media (DMEM without phenol red, 1% L-Glut, 1% Penn/Strep, 1% nonessential amino acids, 10% heat-inactivated FBS). 2-fold serial dilutions of control and test compounds are added to the wells in duplicate in a total volume of 25 μL. Viral stock is then added to the wells at a multiplicity of infection (MOI) of 0.1 in a volume of 25 μL, bringing the total volume of each well to 100 μL. The MOI is calculated using the PFU/mL, or TCID50 if unavailable. Each 96-well plate has a control column of 6 wells with cells and virus but no compound (negative control, max CPE), a column with cells but no compound or virus (positive control, minimum CPE), and a column with no cells or virus or compound (background plate/reagent control). The control wells with cells but no virus are given an additional 25 uL of growth media containing an equal quantity of sucrose as those wells receiving the viral stock in order to keep consistent in media and volume conditions. The outer wells of the plate are filled with 125 μL of moat media (DMEM, 1% Penn/Strep) to act as a thermal and evaporative moat around the test wells. Following a 5-day incubation period, the plates are read using ATPlite (50 uL added per well), which quantifies the amount of ATP (a measure of cell health) present in each well. Assay plates are read using the Envision luminometer. In parallel, cytotoxicity is examined on an additional 96-well plate treated in an identical manner, but substituting the 25 μL of viral stock for 25 μL of growth media. […] EC50 ranges are as follows: A<0.4 μM; B 0.4-0.8 μM; C>0.8 μM and CC50 ranges are as follows: A>50 μM; B 10-50 μM; C<10 μM.

Row | Compound | EC50 [1] [µM] | CC50 at 5 days [2] [µM]
1 | Cc1nnc(NC2N=C(c3ccccc3)c3ccccc3NC2=O)o1 (stereo not shown) [Example 18] | > 0.8 | > 50
2 | O=C1Nc2ccccc2C(c2ccccc2)=NC1Nc1nnc(-c2ccccc2)s1 (stereo not shown) [Example 81] | > 0.8 | > 50
3 | N#Cc1cc(-c2nnc(NC3N=C(c4ccccc4)c4ccccc4NC3=O)o2)ccc1F (stereo not shown) [Example 32] | 0.4 to 0.8 | > 50
4 | NS(=O)(=O)c1ccc(-c2nnc(NC3N=C(c4ccccc4)c4ccccc4NC3=O)o2)cc1 (stereo not shown) [Example 31] | 0.4 to 0.8 | > 50
5 | O=C1Nc2ccccc2C(c2ccccc2)=NC1Nc1nnc(-c2ccc(-n3cccn3)cc2)o1 (stereo not shown) [Example 36] | 0.4 to 0.8 | 10 to 50
6 | O=C1Nc2ccccc2C(c2ccccc2)=NC1Nc1nnc(Cc2ccccc2)o1 (stereo not shown) [Example 22] | > 0.8 | > 50
7 | Cc1ccc(-c2nnc(NC3N=C(c4ccccc4)c4ccccc4NC3=O)o2)s1 (stereo not shown) [Example 19] | > 0.8 | > 50
8 | CN1CCc2nc(-c3nnc(NC4N=C(c5ccccc5)c5ccccc5NC4=O)o3)sc2C1 (stereo not shown) [Example 44] | > 0.8 | > 50
9 | CN1CCC(c2nnc(NC3N=C(c4ccccc4)c4ccccc4NC3=O)o2)CC1 (stereo not shown) [Example 46] | > 0.8 | > 50
10 | CN(C)Cc1ccc(-c2nnc(NC3N=C(c4ccccc4)c4ccccc4NC3=O)o2)o1 (stereo not shown) [Example 73] | > 0.8 | > 50
11 | N#Cc1cc(-c2nnc(NC3N=C(c4ccccc4)c4ccccc4NC3=O)o2)ccn1 (stereo not shown) [Example 38] | > 0.8 | > 50
12 | Cn1nccc1-c1nnc(NC2N=C(c3ccccc3)c3ccccc3NC2=O)o1 (stereo not shown) [Example 65] | > 0.8 | > 50
13 | COc1ccc(-c2nnc(NC3N=C(c4ccccc4)c4ccccc4NC3=O)o2)nc1 (stereo not shown) [Example 51] | 0.4 to 0.8 | > 50
14 | Cc1ccc2oc(NC3N=C(c4ccccc4)c4ccccc4NC3=O)nc2c1 (stereo not shown) [Example 106] | > 0.8 | < 10
15 | O=C1Nc2ccccc2C(c2ccccc2)=NC1Nc1nnc(-c2ccncc2)s1 (stereo not shown) [Example 83] | > 0.8 | > 50
16 | O=C1Nc2ccccc2C(c2ccccc2)=NC1Nc1ccnc(-c2ccccc2)n1 (stereo not shown) [Example 96] | > 0.8 | 10 to 50
17 | O=C1Nc2ccccc2C(c2ccccc2)=NC1Nc1nnc(-c2cncs2)o1 (stereo not shown) [Example 76] | > 0.8 | > 50
18 | O=C1Nc2ccccc2C(c2ccccc2)=NC1Nc1nnc(-c2ccc(C(F)(F)F)cn2)o1 (stereo not shown) [Example 25] | > 0.8 | > 50
19 | O=C1Nc2ccccc2C(c2ccccc2)=NC1Nc1nc2cc(F)ccc2o1 (stereo not shown) [Example 104] | > 0.8 | 10 to 50
20 | O=C1Nc2ccccc2C(c2ccccc2)=NC1Nc1nc(-c2ccccc2)cs1 (stereo not shown) [Example 90] | > 0.8 | < 10
21 | O=C1Nc2ccccc2C(c2ccccc2)=NC1Nc1cc(-c2ccccc2)ncn1 (stereo not shown) [Example 92] | > 0.8 | 10 to 50
22 | O=C1Nc2ccccc2C(c2ccccc2)=NC1Nc1nnc(-c2ccc(Cl)o2)o1 (stereo not shown) [Example 20] | > 0.8 | > 50
23 | O=C1Nc2ccccc2C(c2ccccc2)=NC1Nc1cc(N2CCOCC2)ncn1 (stereo not shown) [Example 93] | > 0.8 | 10 to 50
24 | CC(C)Oc1cccc(-c2nnc(NC3N=C(c4ccccc4)c4ccccc4NC3=O)o2)c1 (stereo not shown) [Example 15] | 0.4 to 0.8 | > 50
25 | O=C1Nc2ccccc2C(c2ccccc2)=NC1Nc1nc(-c2ccccc2)ns1 (stereo not shown) [Example 87] | > 0.8 | 10 to 50

Row | Compound | EC50 [1] [µM] | CC50 at 5 days [2] [µM]
26 | O=C1Nc2ccccc2C(c2ccccc2)=NC1Nc1nnc(-c2cccc(C(F)(F)F)c2)o1 (stereo not shown) [Example 29] | > 0.8 | > 50
27 | O=C1Nc2ccccc2C(c2ccccc2)=NC1Nc1nnc(-c2cnco2)o1 (stereo not shown) [Example 75] | > 0.8 | > 50
28 | N#Cc1cccc(-c2nnc(NC3N=C(c4ccccc4)c4ccccc4NC3=O)o2)c1 (stereo not shown) [Example 35] | > 0.8 | > 50
29 | O=C1Nc2ccccc2C(c2ccccc2)=NC1Nc1nnc([C@H]2COCCN2)o1 (stereo partly shown) [Example 49] | > 0.8 | > 50
30 | O=C1Nc2ccccc2C(c2ccccc2)=NC1Nc1nc2ccc(F)cc2o1 (stereo not shown) [Example 103] | > 0.8 | 10 to 50
31 | COc1cccc(-c2nnc(NC3N=C(c4ccccc4)c4ccccc4NC3=O)o2)c1 (stereo not shown) [Example 4] | > 0.8 | > 50
32 | O=C1Nc2ccccc2C(c2ccccc2)=NC1Nc1nnc(-c2cnccn2)o1 (stereo not shown) [Example 58] | > 0.8 | > 50
33 | O=C1Nc2ccccc2C(c2ccccc2)=NC1Nc1nnc(-c2ccnc(F)c2)o1 (stereo not shown) [Example 55] | < 0.4 | > 50
34 | O=C1Nc2ccccc2C(c2ccccc2)=NC1Nc1nnc(-c2ccncn2)o1 (stereo not shown) [Example 63] | > 0.8 | > 50
35 | O=C1Nc2ccccc2C(c2ccccc2)=NC1Nc1nnc(-c2cncnc2)o1 (stereo not shown) [Example 60] | > 0.8 | > 50
36 | Cc1cc(-c2nnc(NC3N=C(c4ccccc4)c4ccccc4NC3=O)o2)ccc1C#N (stereo not shown) [Example 34] | 0.4 to 0.8 | > 50
37 | O=C1Nc2ccccc2C(c2ccccc2)=NC1Nc1nnc(-c2nccs2)o1 (stereo not shown) [Example 69] | > 0.8 | > 50
38 | Cc1cccc(-c2nnc(NC3N=C(c4ccccc4)c4ccccc4NC3=O)o2)n1 (stereo not shown) [Example 26] | > 0.8 | > 50
39 | O=C1Nc2ccccc2C(c2ccccc2)=NC1Nc1nnc([C@@H]2COCCN2)o1 (stereo partly shown) [Example 48] | > 0.8 | > 50
40 | O=C1Nc2ccccc2C(c2ccccc2)=NC1Nc1nnc(-c2ccccc2F)o1 (stereo not shown) [Example 6] | > 0.8 | > 50
41 | N#Cc1ccc(-c2nnc(NC3N=C(c4ccccc4)c4ccccc4NC3=O)o2)cc1F (stereo not shown) [Example 33] | > 0.8 | > 50
42 | O=C1Nc2ccccc2C(c2ccccc2)=N[C@@H]1Nc1nnc(-c2ccco2)o1 [Example 10a] | 0.4 to 0.8 | > 50
43 | O=C1Nc2ccccc2C(c2ccccc2)=NC1Nc1nnc(-c2ccccn2)o1 (stereo not shown) [Example 11] | 0.4 to 0.8 | > 50
44 | COCc1ccc(-c2nnc(NC3N=C(c4ccccc4)c4ccccc4NC3=O)o2)o1 (stereo not shown) [Example 72] | > 0.8 | > 50
45 | O=C1Nc2ccccc2C(c2ccccc2)=NC1Nc1nnc(C2CCNCC2)o1 (stereo not shown) [Example 45] | > 0.8 | > 50
46 | O=C1Nc2ccccc2C(c2ccccc2)=NC1Nc1nnc(-c2cccc(F)c2)o1 (stereo not shown) [Example 3] | > 0.8 | > 50
47 | O=C1Nc2ccccc2C(c2ccccc2)=N[C@H]1Nc1nnc(-c2ccco2)o1 [Example 10b] | > 0.8 | < 10
48 | O=C1Nc2ccccc2C(c2ccccc2)=NC1Nc1nnc(-c2cccnn2)o1 (stereo not shown) [Example 62] | > 0.8 | > 50
49 | COc1ccccc1-c1nnc(NC2N=C(c3ccccc3)c3ccccc3NC2=O)o1 (stereo not shown) [Example 9] | > 0.8 | > 50
50 | O=C1Nc2ccccc2C(c2ccccc2)=N[C@H]1Nc1nnc(-c2ccc(F)cc2)o1 [Example 7b] | > 0.8 | 10 to 50
